# Where two headings read alike, the source gives them in different places.
# Legend:
# [1] = cited from earlier work
# [2] = cited from earlier work; for solubility (in words): aqueous; for solubility: 20° C.
# [3] = target: cyclooxygenase 1 (COX-1) (Homo sapiens, UniProt P23219); conditions: therapeutic plasma concentrations in humans; cited from earlier work
# [4] = Forced degradation study (formation of valdecoxib); assay type: physicochemical; conditions: oxidative, basic, acidic conditions
# cyclooxygenase 1 (COX-1), sequence (P23219 24-599): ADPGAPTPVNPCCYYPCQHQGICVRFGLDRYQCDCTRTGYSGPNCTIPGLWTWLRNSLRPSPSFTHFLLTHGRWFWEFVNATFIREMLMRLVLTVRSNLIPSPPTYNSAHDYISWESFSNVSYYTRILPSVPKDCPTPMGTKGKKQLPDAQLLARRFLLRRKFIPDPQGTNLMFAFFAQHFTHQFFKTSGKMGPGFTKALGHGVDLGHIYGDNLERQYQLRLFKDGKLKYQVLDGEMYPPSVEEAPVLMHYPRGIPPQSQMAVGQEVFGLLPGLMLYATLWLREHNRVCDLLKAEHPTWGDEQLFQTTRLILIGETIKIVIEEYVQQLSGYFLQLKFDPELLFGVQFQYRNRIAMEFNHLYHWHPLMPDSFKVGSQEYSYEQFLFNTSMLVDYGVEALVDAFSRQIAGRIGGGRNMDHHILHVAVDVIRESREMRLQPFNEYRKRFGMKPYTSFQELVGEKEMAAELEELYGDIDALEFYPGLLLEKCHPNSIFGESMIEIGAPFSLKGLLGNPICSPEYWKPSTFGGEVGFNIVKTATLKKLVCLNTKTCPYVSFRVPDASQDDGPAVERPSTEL
structure (smiles),measurement,setting,value
"CCC(=O)NS(=O)(=O)c1ccc(-c2c(-c3ccccc3)noc2C)cc1 [Parecoxib, parecoxib]",pH of 1% parecoxib in water,[1]; 1% in water at 25° C.,about 7.80
same,"dissociation constant, pKa",[1],6.07
same,solubility in methylene hydrochloride,[2]; methylene chloride,insoluble
same,solubility in tetrahydrofuran,[2]; tetrahydrofuran,slightly soluble
same,solubility in water,[2]; water,very soluble
Cc1onc(-c2ccccc2)c1-c1ccc(S(N)(=O)=O)cc1 [valdecoxib],inhibition of cyclooxygenase 1 (COX-1),[3],does not inhibit
same,solubility (in words),[2],low
CCC(=O)NS(=O)(=O)c1ccc(-c2c(-c3ccccc3)noc2C)cc1 [acidic form of parecoxib],solubility (in words),[2],low solubility
"CCC(=O)NS(=O)(=O)c1ccc(-c2c(-c3ccccc3)noc2C)cc1.[Na+] [parecoxib sodium, N-[[4-(5-methyl-3-phenyl-4-isoxazolyl)phenyl]sulfonyl]propanamide sodium salt]",sensitivity in forced degradation in relation to the formation of valdecoxib,[4],"sensitive to oxidative, basic, and acidic conditions"
same,solubility,[2]; pH 7.8,18 mg/mL
same,solubility,[2]; pH 8.3,220 mg/mL
same,solubility (in words),[2],highly soluble

# From US20220142925A1, “NON-STEROIDAL ANTI-INFLAMMATORY LYOPHILIZED PHARMACEUTICAL COMPOSITION” (EUROFARMA LABORATÓRIOS S.A., priority 2019, published 2022)
